Data reported in ChEMBL document CHEMBL1139057, “Rotenoids and flavonoids with anti-invasion of HT1080, anti-proliferation of U937, and differentiation-inducing activity in HL-60 from Erycibe expansa” (Bioorg Med Chem, 2007).
pIC50: −log10 of the molar value. Calls of active or inactive are those of the source. No cut-off for these calls is given here.

Columns and labels:
HT-1080 [1] = experiment: Antiproliferative activity against human HT1080 cells at 30 uM after 24 hrs by MTT assay; assay type: functional; conditions: HT-1080, 24 h
HT-1080 [2] = experiment: Antiproliferative activity against human HT1080 cells at 30 uM after 72 hrs by calcein-AM assay; assay type: functional; conditions: HT-1080, 72 h
HT-1080 [3] = experiment: Antiproliferative activity against human HT1080 cells at 30 uM after 72 hrs by MTT assay; assay type: functional; conditions: HT-1080, 72 h
HT-1080 [4] = experiment: Antiproliferative activity against human HT1080 cells at 1 uM after 24 hrs by MTT assay; assay type: functional; conditions: HT-1080, 24 h
HL-60 [5] = experiment: […] human HL60 cells assessed NBT positive cells at 30 uM after 72 hrs by NBT reduction test; assay type: functional
HT-1080 [6] = experiment: Antiproliferative activity against human HT1080 cells at 3 uM after 24 hrs by MTT assay; assay type: functional; conditions: HT-1080, 24 h
HL-60 [7] = experiment: Induction of human HL60 cells differentiation assessed as number of cells at 20 uM after 72 hrs by NBT reduction test; assay type: functional
HT-1080 [8] = experiment: Antiproliferative activity against human HT1080 cells at 30 uM after 48 hrs by MTT assay; assay type: functional; conditions: HT-1080, 48 h
HT-1080 [9] = experiment: Antiproliferative activity against human HT1080 cells at 3 uM after 48 hrs by calcein-AM assay; assay type: functional; conditions: HT-1080, 48 h
HT-1080 [10] = experiment: Inhibition of invasion of human HT1080 cells at 3 uM after 24 hrs; assay type: functional; conditions: HT-1080, 24 h
HT-1080 [11] = experiment: Inhibition of invasion of human HT1080 cells at 10 uM after 24 hrs; assay type: functional; conditions: HT-1080, 24 h
HT-1080 [12] = experiment: Antiproliferative activity against human HT1080 cells at 10 uM after 72 hrs by calcein-AM assay; assay type: functional; conditions: HT-1080, 72 h
HT-1080 [13] = experiment: Inhibition of proMMP2 production in human HT1080 cells by gelatin zymography analysis; assay type: functional, cell-based
HT-1080 [14] = experiment: Antiproliferative activity against human HT1080 cells at 10 uM after 24 hrs by MTT assay; assay type: functional; conditions: HT-1080, 24 h
HT-1080 [15] = experiment: Antiproliferative activity against human HT1080 cells at 3 uM after 72 hrs by MTT assay; assay type: functional; conditions: HT-1080, 72 h
HT-1080 [16] = experiment: Antiproliferative activity against human HT1080 cells at 10 uM after 48 hrs by MTT assay; assay type: functional; conditions: HT-1080, 48 h
HT-1080 [17] = experiment: Antiproliferative activity against human HT1080 cells at 1 uM after 48 hrs by MTT assay; assay type: functional; conditions: HT-1080, 48 h
HT-1080 [18] = experiment: Antiproliferative activity against human HT1080 cells at 1 uM after 72 hrs by calcein-AM assay; assay type: functional; conditions: HT-1080, 72 h
HT-1080 [19] = experiment: Inhibition of invasion of human HT1080 cells at 30 uM after 24 hrs; assay type: functional; conditions: HT-1080, 24 h
HT-1080 [20] = experiment: Antiproliferative activity against human HT1080 cells at 3 uM after 72 hrs by calcein-AM assay; assay type: functional; conditions: HT-1080, 72 h
U-937 [21] = experiment: Antiproliferative activity against human U937 cells after 24 hrs by WST-8 assay; assay type: functional, cell-based; conditions: U-937, 24 h
HT-1080 [22] = experiment: Antiproliferative activity against human HT1080 cells at 30 uM after 48 hrs by calcein-AM assay; assay type: functional; conditions: HT-1080, 48 h
HT-1080 [23] = experiment: Antiproliferative activity against human HT1080 cells at 10 uM after 24 hrs by calcein-AM assay; assay type: functional; conditions: HT-1080, 24 h
HT-1080 [24] = experiment: Antiproliferative activity against human HT1080 cells at 1 uM after 24 hrs by calcein-AM assay; assay type: functional; conditions: HT-1080, 24 h
HT-1080 [25] = experiment: Antiproliferative activity against human HT1080 cells at 1 uM after 48 hrs by calcein-AM assay; assay type: functional; conditions: HT-1080, 48 h
HT-1080 [26] = experiment: Inhibition of proMMP9 production in human HT1080 cells by gelatin zymography analysis; assay type: functional, cell-based
HT-1080 [27] = experiment: Antiproliferative activity against human HT1080 cells at 10 uM after 48 hrs by calcein-AM assay; assay type: functional; conditions: HT-1080, 48 h
U-937 [28] = experiment: Antiproliferative activity against human U937 cells after 72 hrs by WST-8 assay; assay type: functional, cell-based; conditions: U-937, 72 h
HT-1080 [29] = experiment: Antiproliferative activity against human HT1080 cells at 3 uM after 48 hrs by MTT assay; assay type: functional; conditions: HT-1080, 48 h
HT-1080 [30] = experiment: Antiproliferative activity against human HT1080 cells at 3 uM after 24 hrs by calcein-AM assay; assay type: functional; conditions: HT-1080, 24 h
HT-1080 [31] = experiment: Inhibition of invasion of human HT1080 cells at 1 uM after 24 hrs; assay type: functional; conditions: HT-1080, 24 h
HT-1080 [32] = experiment: Antiproliferative activity against human HT1080 cells at 10 uM after 72 hrs by MTT assay; assay type: functional; conditions: HT-1080, 72 h
HT-1080 [33] = experiment: Antiproliferative activity against human HT1080 cells at 30 uM after 24 hrs by calcein-AM assay; assay type: functional; conditions: HT-1080, 24 h
HT-1080 [34] = experiment: Antiproliferative activity against human HT1080 cells at 1 uM after 72 hrs by MTT assay; assay type: functional; conditions: HT-1080, 72 h
HL-60 [35] = experiment: […] human HL60 cells assessed NBT positive cells at 10 uM after 72 hrs by NBT reduction test; assay type: functional
HL-60 [36] = experiment: Induction of human HL60 cells differentiation assessed as number of cells at 10 uM after 72 hrs by NBT reduction test; assay type: functional
U-937 [37] = experiment: Antiproliferative activity against human U937 cells after 48 hrs by WST-8 assay; assay type: functional, cell-based; conditions: U-937, 48 h
HL-60 [38] = experiment: […] human HL60 cells assessed NBT positive cells at 0.01 uM after 72 hrs by NBT reduction test; assay type: functional
HL-60 [39] = experiment: […] human HL60 cells assessed NBT positive cells at 0.02 uM after 72 hrs by NBT reduction test; assay type: functional
HL-60 [40] = experiment: Induction of human HL60 cells differentiation assessed as number of cells at 0.01 uM after 72 hrs by NBT reduction test; assay type: functional
HL-60 [41] = experiment: Induction of human HL60 cells differentiation assessed as number of cells at 0.02 uM after 72 hrs by NBT reduction test; assay type: functional

SMILES	inhibition at 30 µM (HT-1080 [1]) [%]	inhibition at 30 µM (HT-1080 [2]) [%]	inhibition at 30 µM (HT-1080 [3]) [%]	Activity (HL-60 [5]) [%]	inhibition at 3 µM (HT-1080 [6]) [%]	Activity (HL-60 [7])	inhibition at 30 µM (HT-1080 [8]) [%]	inhibition at 3 µM (HT-1080 [9]) [%]	inhibition at 3 µM (HT-1080 [10]) [%]	inhibition at 10 µM (HT-1080 [11]) [%]	inhibition at 10 µM (HT-1080 [12]) [%]	inhibition at 10 µM (HT-1080 [14]) [%]	inhibition at 3 µM (HT-1080 [15]) [%]	inhibition at 10 µM (HT-1080 [16]) [%]	inhibition at 30 µM (HT-1080 [19]) [%]	inhibition at 3 µM (HT-1080 [20]) [%]	pIC50 (U-937 [21])	inhibition at 30 µM (HT-1080 [22]) [%]	inhibition at 10 µM (HT-1080 [23]) [%]	inhibition at 10 µM (HT-1080 [27]) [%]	other results
COc1cc2c(cc1OC)[C@]1(O)C(=O)c3ccc4c(c3O[C@@H]1CO2)C=CC(C)(C)O4 [TEPHROSIN]	3.8	98.3	98.6	8.4	0.8	1 10^5/ml	98	63	29.6	49.2	98.2	2	98.7	98.1	67.6	97.9	4.52	83.2	5.9	67.7	inhibition at 1 µM (HT-1080 [4]): -1.9%; Activity (HT-1080 [13]): Active; inhibition at 1 µM (HT-1080 [17]): 96.4%; inhibition at 1 µM (HT-1080 [18]): 97.8%; inhibition at 1 µM (HT-1080 [24]): 5%; inhibition at 1 µM (HT-1080 [25]): 54%; Activity (HT-1080 [26]): Active; pIC50 (U-937 [28]): 5.14; inhibition at 3 µM (HT-1080 [29]): 97.9%; inhibition at 3 µM (HT-1080 [30]): 7%; inhibition at 1 µM (HT-1080 [31]): -9.3%; inhibition at 10 µM (HT-1080 [32]): 98.9%; inhibition at 30 µM (HT-1080 [33]): 13.7%; inhibition at 1 µM (HT-1080 [34]): 98.7%; Activity (HL-60 [35]): 5.9%; Activity (HL-60 [36]): 4.5 10^5/ml; pIC50 (U-937 [37]): 4.64
COc1cc2c(cc1OC)[C@@H]1C(=O)c3ccc4c(c3O[C@@H]1CO2)C=CC(C)(C)O4 [DEGUELIN]	10.9	98.5	98.9	22.2	8.6	0.3 10^5/ml	97.3	44.2	50.2	58	98.5	10.7	98.7	97.7	57.9	98.5	4.38	40.4	-1.8	51	inhibition at 1 µM (HT-1080 [4]): 6.3%; Activity (HT-1080 [13]): Active; inhibition at 1 µM (HT-1080 [17]): 78.3%; inhibition at 1 µM (HT-1080 [18]): 95.3%; inhibition at 1 µM (HT-1080 [24]): 10.5%; inhibition at 1 µM (HT-1080 [25]): 35.2%; Activity (HT-1080 [26]): Active; pIC50 (U-937 [28]): 5.24; inhibition at 3 µM (HT-1080 [29]): 96.5%; inhibition at 3 µM (HT-1080 [30]): -0.9%; inhibition at 1 µM (HT-1080 [31]): 38%; inhibition at 10 µM (HT-1080 [32]): 98.8%; inhibition at 30 µM (HT-1080 [33]): 17%; inhibition at 1 µM (HT-1080 [34]): 98.2%; Activity (HL-60 [35]): 12.5%; Activity (HL-60 [36]): 2.1 10^5/ml; pIC50 (U-937 [37]): 4.80
O=c1c(-c2ccc(O)cc2)coc2cc(O)cc(O)c12 [GENISTEIN]	12.5	17.2	22.5	11.2	-6.2	5.3 10^5/ml	25.3	2	5.5	35.1	6	-1.2	-0.9	9.3	43.2	1.5	< 4.00	17.6	6.1	5.1	pIC50 (U-937 [28]): 4.32; inhibition at 3 µM (HT-1080 [29]): 3.8%; inhibition at 3 µM (HT-1080 [30]): 2.8%; inhibition at 10 µM (HT-1080 [32]): 1.7%; inhibition at 30 µM (HT-1080 [33]): 17.3%; Activity (HL-60 [35]): 4.1%; Activity (HL-60 [36]): 8.3 10^5/ml; pIC50 (U-937 [37]): 4.14
C=C1/C(=C\C=C2/CCC[C@]3(C)[C@@H]([C@H](C)CCCC(C)(C)O)CC[C@@H]23)C[C@@H](O)C[C@@H]1O [CALCITRIOL]	–	–	–	–	–	–	–	–	–	–	–	–	–	–	–	–	–	–	–	–	Activity (HL-60 [38]): 15.6%; Activity (HL-60 [39]): 27.9%; Activity (HL-60 [40]): 8 10^5/ml; Activity (HL-60 [41]): 6.8 10^5/ml
